Reference: a melting point compilation (Tetko et al.; mined from patent text by program, amines drawn as free bases though some values may be those of a salt)

SMILES	melting point
CCOC(=O)C(C)(Cc1ccc(OCCN2CCCCC2)cc1)S(=O)(=O)c1ccc(OC)cc1 (stereo not drawn)	106 °C
CCCCCCCCCCCC1CC(O)C(CCCCCC)C(=O)O1 (stereo not drawn)	98 to 99 °C
COc1ccc2cc3c(N)nn(CN(C)C)c3nc2c1	156 to 158 °C
CC(C)(C)c1cc(-c2nn(-c3ccccc3)c3ncccc23)cc(C(C)(C)C)c1O	174 to 175 °C
N#Cc1c(N2CCN(C(=O)c3cccs3)CC2)c2cc(F)cnc2n(Cc2ccccc2)c1=O	173 °C
O=C1Cc2c(cc(Br)c3ccccc23)C(c2ccccc2F)N1 (stereo not drawn)	257 to 260 °C
CCNC(=O)N1c2ccccc2CCC1CN1CCN(c2cccc3[nH]ccc23)CC1 (stereo not drawn)	109 to 112 °C
COc1cc2ncnc(N3CCN(C(=O)Nc4ccc(S(C)(=O)=O)cc4)CC3)c2cc1OC	266 to 269 °C
CC1CCN(c2ccc([N+](=O)[O-])cc2C(=O)c2ccc(Cl)cc2)CC1	136 °C
Cc1ccccc1NC(=N)NC1CCCCC1	145 to 146 °C
Cc1cc(C=CC#N)cc(Oc2c(C(C)C)c(=O)[nH]c(=O)n2Cc2ccnc(N3C(=O)c4ccccc4C3=O)c2)c1	229 to 231 °C
C=CCOc1cc(C(O)(C(F)(F)F)C(F)(F)F)cc2c(C)cc(=O)[nH]c12	214 to 216 °C
NC(=O)N1C(=O)C(C(=O)c2sccc2F)c2cc(Cl)ccc21 (stereo not drawn)	235 to 240 °C
CC(C)(C)OC(=O)Nc1cc(CO)c(I)cc1[N+](=O)[O-]	> 250 °C
CN(C(=O)Cc1ccc2oc(=O)[nH]c2c1)[C@H](CN1CC[C@H](O)C1)c1ccccc1	207 to 208 °C
CC(=O)OCC1OC(n2c(=O)sc3cnc(N)nc32)C(OC(C)=O)C1OC(C)=O (stereo not drawn)	121 to 123 °C
O=C1CC(c2cccc(-n3ccnc3)c2)=Nc2ccc(C#Cc3ccccc3F)cc2N1	201 to 203 °C
CC(C)=CCc1cc(C2CC(=O)c3ccc(O)cc3O2)ccc1O (stereo not drawn)	76 to 78 °C
CCN(CC)CCN1C(=O)C(NC(=O)c2ccccc2)C(C)(C)SC1=S (stereo not drawn)	152 to 153 °C
O=Cc1cc2cc(Cl)c(Cl)cc2[nH]1	188 to 190 °C
COc1ccc2c(N)c(C(=O)Nc3ccc(Cl)cc3Cl)oc2c1	187 to 188 °C
CCCCC1=C(C(=O)OCC)C(c2ccccc2Cl)c2c[nH]nc2N1 (stereo not drawn)	209 °C
O=C(Nc1ccccc1)C1=NOCCS1	109 to 110 °C
CCOC(=O)C(C)(C)c1cn2nc(CCCCN3CCN(C(c4ccccc4)c4ccccc4)CC3)ccc2n1	105 to 106 °C

SMILES	melting point
O=c1oc2ccccc2c2c1-c1ccccc1OC2	202 °C
Oc1c(C(Nc2ccc(C(F)(F)F)cc2)c2ccccn2)ccc2cccnc12 (stereo not drawn)	158 to 161 °C
C[C@@H]1CCC[C@H](C)N1Cc1ccc2cc(NC(=O)N3CCC(c4ccc(Cl)cc4)CC3)ccc2c1	199 to 200 °C
CN(C)C(=O)C(CCO)C1CCc2c1[nH]c1ccccc21 (stereo not drawn)	118 to 120 °C
CC(C)(C)c1cc(SC2CC(=O)N(C3CCCCC3)C2=O)cc(C(C)(C)C)c1O (stereo not drawn)	94 to 98 °C
COCc1ccc(-c2ccc3c(c2)C=C(C(=O)Nc2ccc(CN(C)C4CCOCC4)cc2)CCS3(=O)=O)cc1	227 to 229 °C
Cc1ccc(C(=O)NC(NC(=S)Nc2ccccc2F)C(F)(F)F)cc1 (stereo not drawn)	197 to 198 °C
CC(=O)NCCCC(=O)c1ccc(Cl)cc1CCC(=O)NCC(=O)O	88 to 89 °C
Cc1c(Cl)ccnc1C(=O)NCCNC(=O)OC(C)(C)C	134 to 135 °C
COC=C(C(=O)OC)c1ccccc1CC(=O)c1ccccc1Cl	70 to 75 °C
COc1cc(CCC(=O)O)cc(I)c1O	96 to 97 °C
N#CCCN(N)c1nc2ccccc2s1	111 to 113 °C
CCOc1nc2cccc(C(=O)OCOC(=O)C(C)(C)C)c2n1Cc1ccc(-c2ccccc2-c2nnn[nH]2)cc1	104 to 106 °C
CC(C)[C@H](NC(=O)N(C)Cc1cscn1)C(=O)N[C@@H](Cc1ccccc1)C[C@H](O)[C@H](Cc1ccccc1)NC(=O)OCc1cccnc1	69 to 73 °C
CC(=O)NC[C@H]1CN(c2ccc(N3CCC(n4cc(CO)nn4)CC3)c(F)c2)C(=O)O1	160 to 162 °C
CCOC(=O)C1=CC(=O)CCC1S(=O)(=O)Nc1ccc(F)cc1Cl (stereo not drawn)	128 to 130 °C
Cc1nc(NC(=O)c2ccccc2)cn1CCCCC1(C(=O)NCC(F)(F)F)c2ccccc2-c2ccccc21	145 to 147 °C
C=CCOc1cc(NC(=O)OCC)c(F)cc1Br	66 to 68 °C
Cc1sc(C=O)c(C)c1Br	44 to 45 °C
CC(C)(C)OC(=O)N[C@H](Cc1cn(Cc2ccccc2)c2ccccc12)C(=O)O	164 to 165 °C
CCCNC(=S)Nc1ccc(Oc2nc(OC)cc(OC)n2)c(C(=O)OC)n1	218 to 220 °C
Cn1c2ccc(Cl)cc2c(=O)n2nc(C(=O)O)cc12	280 °C
CON=C(c1ccccc1)c1ccc2c(c1)C(C)(C)CCN2CCOc1ccc(CC(Nc2ccccc2C(=O)c2ccccc2)C(=O)O)cc1 (stereo not drawn)	100 to 102 °C
CCC(=O)N1C(=O)OC(C)(C)[C@H]1c1ccccc1	60 °C
